Source: US10919927B2, “Immune stimulating macrolide” (ISR IMMUNE SYSTEM REGULATION HOLDING AB (PUBL), priority 2017, dated 2021)
Entries after “also recorded” stand apart in the source; their conditions may differ.

Key:
[1] = test system: PBMCs from cytomegalovirus (CMV) infected donors; experiment: Cytomegalovirus (CMV) antigen cultures; format: cell-based, Human
Description: Human peripheral blood mononuclear cells (PBMCs) were purified from healthy CMV positive donors with Ficoll-Paque density centrifugation. The PBMC were labeled with 5 μM celltrace violet (Invitrogen) in PBS for 15 minutes and then washed with complete cell culture medium. The labeled PBMC was cultured in the presence of a peptide library spanning the CMV pp65 protein (1 μg peptide/ml, JPT) in AIM-V media (Invitrogen) supplemented with L-glutamine, Sodium pyruvate (Sigma), 10% fetal bovine serum, 100 μg/mL penicillin and 100 μg/mL streptomycin (Hyclone) for 6-8 days in 37° C., 5% CO2. Cell proliferation was assessed with flow cytomtery using a BD FACS Canto II flow cytometer.
Study 7: Virus specific T cell proliferation was also affected by compound 1. […] CD127 is crucial for T cell homeostasis, differentiation and function, and reduced expression correlates with disease severity in HIV and other chronic viral diseases (Crawley et al Sem Imm 2012).
Study 8: PBMCs from CMV infected donors cultured in the presence of CMV antigen where either untreated or exposed to compound 1 or compound 2 for 3 days.

Caco-2 cell monolayers = experiment: Caco-2 bidirectional permeability assay; format: in vitro ADME
Description: (§1) 10 μM Test article was added to the apical (A) surface of Caco-2 cell monolayers (in HBSS buffer with 0.3% DMSO and 5 μM LY at 37 degrees C.) and compound permeation into the basolateral (B) compartment measured following 90 minutes incubation. This was also performed in the reverse direction (basolateral to apical) to investigate active transport. LC-MS/MS is used to quantify levels of both the test and standard control compounds. Efflux ratio was calculated by dividing the B to A permeability by the […]. Drug permeability: Papp=(VA/(Area×time))×([drug]accepter/(([drug]initial,donor)×Dilution Factor). Assessment of Metabolic Stability (Microsome Stability Assay)
(§2) Compounds were tested using a standard caco-2 bidirectional permeability assay (see general methods).

[2] = Caco-2 bidirectional permeability assay; format: in vitro ADME; conditions: human, Caco-2, 10 μM, 90 minutes
Description: as §1, §2

[3] = test system: Macrophages from healthy donors; experiment: Cytokine secretion from macrophages, cytometric bead assay; format: cell-based, Human
Description: Study 9: Macrophages from healthy donors where exposed to compounds 1 or 2 for 48 hours. […] Compound 1 is therefore able to induce IFN-gamma secretion in macrophages from healthy donors.
(§3) Study 10: PBMCs and macrophages where exposed to compounds 1 or 2 for 2 days (FIG. 11).
(§4) Study 11: PBMCs and macrophages where exposed to compounds 1 and 2 for 2 days.
(§5) Study 12: PBMCs, macrophages and CD4+ T cells where exposed to compounds 1 and 2 for 2 days.

C57bl/6 mice [4] = experiment: MHC class I expression on CD11b+ splenocytes of mice after i.v. injection; format: in vivo; conditions: spleen 24 h later
Description: FIG. 15: % MHC class I high CD11 b+ cells in spleen of 3 individual C57bl/6 mice injected 24 h previously with indicated compound. MHC class I and CD11 b expression was measured by flow cytometry.
Study 14: Compound 1 or 2 was administered i.v. to C57bl/6 mice.

PBMCs = experiment: Cytokine secretion from PBMC, cytometric bead assay; format: cell-based, Human; conditions: 2 days
Text: as §3, §4, §5

CD4+ T cells = experiment: IL-1beta secretion from CD4+ T cells, cytometric bead assay; format: cell-based, Human; conditions: 2 days
Text: as §5

C57bl/6 mice [5] = experiment: CD25 high cells in blood of mice after i.v. injection; format: in vivo; conditions: highest dose of 5 mg/kg, 24 h
Description: FIG. 14: % CD25 high cells in blood of C57bl/6 mice injected 24 h previously with indicated dose of compound 1. CD25 expression was measured by flow cytometry.
Study 13: Compound 1 was administered i.v. to C57bl/6 mice at 0.165 mg/kg to 5 mg/kg. CD25+ cell abundance was increased in animals receiving the highest dose of 5 mg/kg (FIG. 14), as was body weight in the same group (not shown).

human TLR2 = molecular target: T1, human TLR2 (Homo sapiens, UniProt O60603); experiment: TLR2 reporter assay (HEK-293-TLR cells, SEAP); format: cell-based; conditions: concentrations 5 uM up to 20 uM
T1 construct: host or cells: recombinant HEK-293-TLR cell lines
Description: These cell lines functionally over-express human TLR2 protein as well as a reporter gene which is a secreted alkaline phosphatase (SEAP). The production of this reporter gene is driven by an NFkB inducible promoter. The TLR reporter cell lines activation results are given as optical density values (OD).
20 μl of each test article were used to stimulate the hTLR2 reporter cell lines in a 200 μl of final reaction volume. Samples were tested in duplicate, with at least two concentrations tested—20 uM and 10 uM.
Compounds were tested using a TLR2 reporter assay (see general methods) that measured for stimulation of the TLR2 receptor. Stimulatory effect was measured as an increase in optical density, as compared to the negative control (OD) due to release of secreted alkaline phosphatase (SEAP) and is shown in table 2.

[6] = test system: E. coli, S. salivarius, L. casei, B. longum or M. luteus; experiment: Direct antibacterial activity, all bacterial strains tested (summary); format: cell-based
Description: The bioactivity of macrolide compounds against 4 strains of common gut bacteria (Escherichia coli, Streptococcus salivarius subsp. salivarius, Lactobacillus casei and Bifidobacterium longum subsp. infantis) and common mammalian skin isolate Micrococcus luteus, was assessed using the Minimum Inhibitory Concentration (MIC) assay. Bacterial strains were purchased from DSMZ (Brunswick, Germany) except M. luteus which was obtained from NCIMB, and stored in 20% glycerol at −80° C. Stock solutions (100% DMSO) of positive controls (azithromycin and erythromycin), and of test compounds 1 and 2 were diluted in broth to working stock concentrations of 256 μg/ml (final assay testing concentration range 128 μg/ml to 0.00391 μg/ml). Stock solutions of all other compounds were diluted in broth to working stock concentrations of 128 μg/ml (final assay testing concentration range 64 μg/ml to 0.00195 μg/ml). Bacterial strains were cultivated in appropriate broth in an anaerobic chamber at 37° C., except for M. luteus which was incubated aerobically at 37° C. 18 h cultures were diluted in broth to an OD595 of 0.1 and then further diluted 1:10. In 96-well plates, in duplicate, 200 μl working stock of test compound was transferred to well 1 and serially diluted (1:2) in broth. 100 μl bacterial suspension was aliquoted into each well and mixed thoroughly. Appropriate sterility controls were included and plates were incubated in an anaerobic chamber, or aerobically (M. luteus) at 37° C. for 18 h. The MIC was determined to be the concentration of test compound in the first well with no visible growth.

T1 sequence (O60603 21-784): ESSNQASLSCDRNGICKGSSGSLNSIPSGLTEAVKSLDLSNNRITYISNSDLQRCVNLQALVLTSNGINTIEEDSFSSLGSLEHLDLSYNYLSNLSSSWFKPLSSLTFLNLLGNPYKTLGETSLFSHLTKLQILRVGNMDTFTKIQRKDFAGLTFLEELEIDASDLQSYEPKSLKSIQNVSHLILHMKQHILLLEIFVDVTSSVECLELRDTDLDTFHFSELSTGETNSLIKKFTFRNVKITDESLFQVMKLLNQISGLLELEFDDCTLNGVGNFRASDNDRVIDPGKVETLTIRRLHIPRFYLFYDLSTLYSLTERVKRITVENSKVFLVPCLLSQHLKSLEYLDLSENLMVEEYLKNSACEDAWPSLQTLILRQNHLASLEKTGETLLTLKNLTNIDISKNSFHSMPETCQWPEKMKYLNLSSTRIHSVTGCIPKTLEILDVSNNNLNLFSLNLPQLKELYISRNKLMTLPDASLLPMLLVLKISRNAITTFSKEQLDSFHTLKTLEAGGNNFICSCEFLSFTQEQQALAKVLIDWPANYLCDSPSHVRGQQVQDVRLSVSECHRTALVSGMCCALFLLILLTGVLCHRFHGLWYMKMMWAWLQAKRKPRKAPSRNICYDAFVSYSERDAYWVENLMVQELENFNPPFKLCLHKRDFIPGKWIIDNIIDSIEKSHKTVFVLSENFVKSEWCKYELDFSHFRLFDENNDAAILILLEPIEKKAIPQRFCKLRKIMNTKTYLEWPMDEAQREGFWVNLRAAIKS

| TLR2 stimulation (in words) (human TLR2) | Papp A→B at 90 min, 10 μM ([2]; apical to basolateral) | SMILES | IFN-gamma secretion ([1]; 3 days) | IL-7 receptor α (CD127) on activated CMV specific CD8+ T cells ([1]; 6 days) | cell permeability compared with Azithromycin and EM703 (in words) (Caco-2 cell monolayers) | efflux ratio compared with Azithromycin and EM703 (in words) (Caco-2 cell monolayers) | efflux ratio at 90 min, 10 μM [2] | IL-1beta secretion in macrophages ([3]; 2 days) | IL-12p70 secretion from macrophages ([3]; 2 days) | expression of RANTES in macrophages ([3]; 2 days) | IFN-gamma secretion from macrophages ([3]; 48 hours) | splenocyte cells (CD11b+) with high MHC I expression (C57bl/6 mice [4]) | IL-1beta secretion in PBMCs (PBMCs) | IL-12p70 secretion from PBMCs (PBMCs) | expression of RANTES in PBMCs (PBMCs) | IL-1beta secretion in CD4+ T cells (CD4+ T cells) | CD25+ cell abundance in blood (C57bl/6 mice [5]) | antibacterial activity (in words) [6] |
| --- | --- | --- | --- | --- | --- | --- | --- | --- | --- | --- | --- | --- | --- | --- | --- | --- | --- | --- |
| little or no stimulation | < 0.14 ×10⁻⁶ cm/s | CC[C@H]1OC(=O)[C@H](C)[C@@H](O[C@H]2C[C@@](C)(OC)[C@@H](O)[C@H](C)O2)[C@H](C)[C@@H](O[C@@H]2O[C@H](C)C[C@H](N(C)C)[C@H]2O)[C@](C)(O)C[C@@H](C)CN(C)[C@H](C)[C@@H](O)[C@]1(C)O [Azithromycin, reference compound] |  |  |  |  | > 77.6 |  |  |  |  |  |  |  |  |  |  | potent activity |
| little or no stimulation |  | CC[C@H]1OC(=O)[C@H](C)[C@@H](O[C@H]2C[C@@](C)(OC)[C@@H](O)[C@H](C)O2)[C@H](C)[C@@H](O[C@@H]2O[C@H](C)C[C@H](N(C)C)[C@H]2O)[C@](C)(O)C[C@@H](C)C(=O)[C@H](C)[C@@H](O)[C@]1(C)O [Erythromycin, Erythromycin A, reference compound] |  |  |  |  |  |  |  |  |  |  |  |  |  |  |  | potent activity |

| SMILES | TLR2 stimulation (in words) (human TLR2) | Papp A→B at 90 min, 10 μM ([2]; apical to basolateral) | IFN-gamma secretion ([1]; 3 days) | IL-7 receptor α (CD127) on activated CMV specific CD8+ T cells ([1]; 6 days) | cell permeability compared with Azithromycin and EM703 (in words) (Caco-2 cell monolayers) | efflux ratio compared with Azithromycin and EM703 (in words) (Caco-2 cell monolayers) | efflux ratio at 90 min, 10 μM [2] | IL-1beta secretion in macrophages ([3]; 2 days) | IL-12p70 secretion from macrophages ([3]; 2 days) | expression of RANTES in macrophages ([3]; 2 days) | IFN-gamma secretion from macrophages ([3]; 48 hours) | splenocyte cells (CD11b+) with high MHC I expression (C57bl/6 mice [4]) | IL-1beta secretion in PBMCs (PBMCs) | IL-12p70 secretion from PBMCs (PBMCs) | expression of RANTES in PBMCs (PBMCs) | IL-1beta secretion in CD4+ T cells (CD4+ T cells) | CD25+ cell abundance in blood (C57bl/6 mice [5]) | antibacterial activity (in words) [6] |
| --- | --- | --- | --- | --- | --- | --- | --- | --- | --- | --- | --- | --- | --- | --- | --- | --- | --- | --- |
| CC[C@H]1OC(=O)[C@H](C)[C@@H](O[C@H]2C[C@@H](N(C)C)[C@H](O)[C@@H](C)O2)[C@H](C)[C@@H](O)[C@](C)(O)C[C@@H](C)CN(C)[C@H](C)[C@@H](O)[C@]1(C)O [Compound 1] | stimulated TLR2 at concentrations down to 5 uM |  | induced secretion of high levels | increased expression | more cell permeable | lower efflux ratio | 63.4 | increased | secreted IL-12p70 | high expression | secreted IFN-gamma | increase | slightly | secreted IL-12p70 | twofold upregulation | no IL-1beta was induced | increased | no antibacterial activity; also recorded: no or minimal antibacterial effect |
